# What was measured:
# [1] = Plasma levels after topical dermal administration; format: in vivo, rat; conditions: dermal application, 50 mg/kg, DMSO/distilled H2O or PG/H2O
# Method: Female and male Wistar rats (200-250 g) were anaesthetized with 1 mL of zoletil (50 mg/kg) and xylazine (10 mg/kg; Lyppard, Australia), which was injected intraperitoneally. An area of 5×10 cm was shaved and marked on the lower abdominal area of the rat, on to which the dose of drug was applied. A stock solution containing 10 mg/ml of C5a antagonist was dissolved in solvents propylene glycol or dimethylsulfoxide at varying concentrations with water and smeared evenly on the shaved abdominal area of the rat with a spatula. A heating pad was used to maintain the body temperature of the rats and blood samoles were taken at 15 min intervals for the first hour, and after that at 1 hr intervals for a total period or 3 hours.
# Blood samples were immediately added to tubes containing heparin (500 Units/μL) and centrifuged (11000×g). […] The fluid portions of the samples were placed in 1 mL Eppendorf tubes and stored until analysed.
# These samples were transferred to 96 well plates and evaporated to dryness using a GeneVac centrifugal evaporator, then reconstituted in the wells with mobile phase (20 μL) Analysis of samples was performed by liquid chromatography (LCMS) using an Agilent 1100 series HPLC equipped with a well plate autosampler coupled with a PE Sciex Qstar Pulsar ESI-TOF mass spectrometer. Concentrations were determined from a standard curve of drug:internal standard peak area ratios. […]
# [2] = test system: C5a-induced neutropenia; test: C5a-induced neutropenia after topical administration; format: in vivo; conditions: topical 10 mg/per rat in 50% propylene glycol and 50% distilled H2O; C5a 2 μg/kg i.v.
# Method: Female Wistar rats weighing between 200-250 g were used for in vivo testing of all C5a receptor antagonists. Rats were anaesthetized using the procedure described above, and transferred on to a heating pad to ensure that body temperature was maintained throughout the experiment. A catheter was inserted in the femoral vein, secured with a suture and flushed with 100 μL of heparinised saline. Rats were dosed with either the antagonist or vehicle, intravenously (1 mg kg^−1 in 200 μL saline containing 10% ethanol, 10 min prior to LPS challenge) or topically ([…] challenge) Rats were infused i.v via the femoral catheter with either LPS (1 mg kg^−1 i.v in 100 μL saline), recombinant human C5a (2 μgkg^−1 in 100 μL), or vehicle control 10 minutes after the iv administration or 60 min after topical administration, of antagonist or vehicle control. All agents infused i.v were injected over a 2 min period, and were followed with a subsequent injection of 100 μL of saline to ensure complete delivery of the drug.
# Whole blood samples (0.1 mL) were collected from the tail vein at the time of drug and LPS or C5a administration. […] The number of PMNs was counted on a haemocytometer. The number of cells at each time point was calculated as a percentage of the total number of cells at time zero, prior to complement challenge or LPS. […]
# [3] = test system: gut ischemia-reperfusion; test: Intestinal ischemia-reperfusion injury in rats
# Method: Female Wistar rats (250-300 g, n=132) were fasted and given only water for 12 h prior to all experiments. Animals were anaesthetised by the intraperitoneal injection of 80 mg kg^−1 ketamine and 10 mg kg^−1 xylazine and throughout the procedure rats were placed on a heating pad to maintain normal body temperature. […] A non-traumatic occlusive device for the artery was fashioned from a silk suture looped though a length of polyethylene tubing. The SMA was occluded by applying traction to the ends of the loop. […] (1) in 5% ethanol or sterile, pyrogen-free saline in 0-2 ml volume. Infusions were made over a 2 min period. […] (1) (0.3, 1, 10 mg kg^−1) was achieved by gavage (0.2 ml saline in 25% ethanol) 60 min prior to SMA occlusion. Intestinal ischemia was induced by clamping the SMA for 30 min, after which the occlusive suture was removed, then reperfusion was monitored for another 120 min. Sham-operated rats were treated in an identical fashion, with the omission of vascular occlusion, and were infused with 0.2 ml of sterile, pyrogen-free saline or gavaged with 0.2 ml of saline in 25% ethanol. Blood samples (50 μL) were collected into heparinised Eppendorf tubes at regular intervals over the 180 min duration of the experiments for the estimation of PMN numbers. In a different series of identical experiments, whole blood was collected at regular intervals over the 180 min and allowed to clot on ice, and serum or plasma samples collected and stored at −20° C. for later measurement of tumour necrosis factor-α (TNF-α), haptoglobin (Hp) and aspartate aminotransferase (AST) concentrations. At the end of the 120 min reperfusion period, the animals were euthanased with an overdose of pentobarbital A section of the occluded ileum was removed, the lumen rinsed with saline, and the intestine was blotted dry, then weighed. Specimens were dried in an oven for 24 hours at 80° C. to obtain the tissue dry weight. Intestinal oedema was determined by assessing the wet and dry tissue weight ratio. Additionally, segments of both ischaemic and normal intestine were harvested and rinsed with saline and immediately fixed in 10% buffered formaldehyde-saline for histological studies.
# Blood (50 μL) for PMN counts was placed into heparinised tubes and then layered over an equal volume of Histopaque 1083 (Sigma, U.S.A.), PMNs were isolated and cell number counted on a haemocytometer. Concentrations of PMN's values are presented as mean percentage±SEM of the values obtained immediately prior to SMA occlusion.
# Serum TNF-α concentrations were measured using an enzyme-linked immunosorbent assay, (OptEIA, Pharmingen, USA), according to the manufacturers instructions. Concentrations of TNF-α in serum samples were determined by linear regression analysis from the standard curve.
# Plasma AST (AST/GOT; Sigma, USA) concentrations were measured according to manufacturers instructions within 48 h of collecting plasma. Plasma AST concentrations were derived from calibration curve. Results are expressed in Sigma-Franke (SF) units/ml.
# Specimens were fixed in 10% formaldehyde-saline, embedded in paraffin wax, sectioned serially, and stained with haematoxylin and eosin. Tissues were read and scored by a trained observer in a blinded fashion. The degree of intestinal tissue injury was determined using a previously described graded scale ranging from 0-8 (Chiu et al., 1970).
smiles,measurement,setting,value
"CC(=O)N[C@@H](Cc1ccccc1)C(=O)N[C@H]1CCCNC(=O)[C@H](CCCNC(=N)N)NC(=O)[C@H](Cc2c[nH]c3ccccc23)NC(=O)[C@@H](CC2CCCCC2)NC(=O)[C@@H]2CCCN2C1=O [Compound 1, Ac-Phe-[Orn-Pro-dCha-Trp-Arg]]",appearance of the C5a antagonist in the circulating plasma,[1],≤ 15 min
same,persistence of significant plasma levels,[1],at least 4 hr
same,neutropaenic effects of i.v. C5a,[2],prevent the neutropaenic effects of C5a
same,ischemia-reperfusion induced neutropenia,[3]; 1 mg/kg i.v. and 10 mg/kg p.o.,significantly inhibited
same,gut ischemia-reperfusion induced plasma aspartate aminotransferase,"[3]; 1 mg/kg i.v. and 1,10 mg/kg",significantly reduced
same,gut ischemia-reperfusion induced tissue damage (histopathology),"[3]; 1 mg/kg i.v. and 1,10 mg/kg",significantly reduced
same,increase in serum haptoglobin levels,"[3]; 1 mg/kg i.v. and 1,10 mg/kg p.o.",significantly inhibited
same,change in serum TNF-α levels,[3]; 1 mg/kg i.v. and 1-10 mg/kg p.o.,completely inhibited
same,ischemia-reperfusion induced neutropenia,[3]; 1 mg/kg p.o.,no inhibition
